Experimental data published in ChEMBL document CHEMBL3997804, “Evaluation of a series of 2-napthamide derivatives as inhibitors of the drug efflux pump AcrB for the reversal of antimicrobial resistance” (Bioorg Med Chem Lett, 2017).
The source made the active and inactive calls. The rule behind the calls is not given here.

Legend:
Escherichia coli [1] = experiment: Potentiation of tetraphenyl phosphonium chloride-induced antibacterial activity against AcrB-deficient Escherichia coli BW25113 assessed as tetraphenyl phosphonium chloride MIC at 128 ug/ml after 18 hrs by checkerboard method (reference value: 64 ug/ml); assay type: functional; conditions: BW25113, 18 h
Escherichia coli BW25113 [2] = experiment: Inhibition of AcrB in wild-type drug resistant Escherichia coli BW25113 assessed as potentiation of chloramphenicol-induced antibacterial activity by measuring chloramphenicol MIC at 256 ug/ml after 18 hrs by checkerboard method (reference value: 8 ug/ml)
Escherichia coli BW25113 [3] = experiment: Inhibition of AcrB in wild-type drug resistant Escherichia coli BW25113 assessed as potentiation of tetraphenyl phosphonium chloride-induced antibacterial activity by measuring FICI at 128 to 512 ug/ml after 18 hrs by checkerboard method
Escherichia coli BW25113 [4] = experiment: Inhibition of AcrB in wild-type drug resistant Escherichia coli BW25113 assessed as potentiation of chloramphenicol-induced antibacterial activity by measuring chloramphenicol MIC at 512 ug/ml after 18 hrs by checkerboard method (reference value: 8 ug/ml)
Escherichia coli [5] = experiment: Effect on rifampicin-induced antibacterial activity against AcrB-deficient Escherichia coli BW25113 assessed as rifampicin MIC at 256 ug/ml after 18 hrs by checkerboard method (reference value: 16 ug/ml); assay type: functional; conditions: BW25113, 18 h
Escherichia coli BW25113 [6] = experiment: Inhibition of AcrB in wild-type drug resistant Escherichia coli BW25113 assessed as potentiation of chloramphenicol-induced antibacterial activity by measuring chloramphenicol MIC at 128 ug/ml after 18 hrs by checkerboard method (reference value: 8 ug/ml)
Escherichia coli [7] = experiment: Potentiation of chloramphenicol-induced antibacterial activity against AcrB-deficient Escherichia coli BW25113 assessed as chloramphenicol MIC at 128 ug/ml after 18 hrs by checkerboard method (reference value: 2 ug/ml); assay type: functional; conditions: BW25113, 18 h
Escherichia coli BW25113 [8] = experiment: Inhibition of AcrB in wild-type drug resistant Escherichia coli BW25113 assessed as potentiation of tetraphenyl phosphonium chloride-induced antibacterial activity by measuring tetraphenyl phosphonium chloride MIC at 256 ug/ml after 18 hrs by checkerboard method (reference value: 1024 ug/ml)
Escherichia coli [9] = experiment: Potentiation of chloramphenicol-induced antibacterial activity against AcrB-deficient Escherichia coli BW25113 assessed as chloramphenicol MIC at 256 ug/ml after 18 hrs by checkerboard method (reference value: 2 ug/ml); assay type: functional; conditions: BW25113, 18 h
Escherichia coli [10] = experiment: Growth inhibition of wild-type drug-resistant Escherichia coli BW25113 after 18 hrs by resazurin dye based broth microdilution method
Escherichia coli BW25113 [11] = experiment: Inhibition of AcrB in wild-type drug resistant Escherichia coli BW25113 assessed as potentiation of erythromycin-induced antibacterial activity by measuring erythromycin MIC at 128 ug/ml after 18 hrs by checkerboard method (reference value: 128 ug/ml)
Escherichia coli [12] = experiment: Effect on rifampicin-induced antibacterial activity against AcrB-deficient Escherichia coli BW25113 assessed as rifampicin MIC at 128 ug/ml after 18 hrs by checkerboard method (reference value: 16 ug/ml); assay type: functional; conditions: BW25113, 18 h
Escherichia coli [13] = experiment: Potentiation of erythromycin-induced antibacterial activity against AcrB-deficient Escherichia coli BW25113 assessed as erythromycin MIC at 128 ug/ml after 18 hrs by checkerboard method (reference value: 16 ug/ml); assay type: functional; conditions: BW25113, 18 h
Escherichia coli [14] = experiment: Potentiation of erythromycin-induced antibacterial activity against AcrB-deficient Escherichia coli BW25113 assessed as erythromycin MIC at 256 ug/ml after 18 hrs by checkerboard method (reference value: 16 ug/ml); assay type: functional; conditions: BW25113, 18 h
Escherichia coli [15] = experiment: Effect on rifampicin-induced antibacterial activity against wild-type drug resistant Escherichia coli BW25113 assessed as rifampicin MIC at 256 ug/ml after 18 hrs by checkerboard method (reference value: 16 ug/ml); assay type: functional; conditions: BW25113, 18 h
Escherichia coli BW25113 [16] = experiment: Inhibition of […] in drug resistant Escherichia coli BW25113 assessed as increase in outer membrane permeability by measuring increase nitrocefin hydrolysis at 512 ug/ml measured over 30 mins in presence of CCCP by spectrophotometric method
Escherichia coli [17] = experiment: Disruption of inner membrane potential in drug resistant Escherichia coli BW25113 at 512 ug/ml incubated for 10 mins measured for 60 secs by DiOC2(3) dye based fluorimetric method; assay type: functional
Escherichia coli BW25113 [18] = experiment: Inhibition of AcrB in wild-type drug resistant Escherichia coli BW25113 assessed as potentiation of tetraphenyl phosphonium chloride-induced antibacterial activity by measuring tetraphenyl phosphonium chloride MIC at 128 ug/ml after 18 hrs by checkerboard method (reference value: 1024 ug/ml)
Escherichia coli BW25113 [19] = experiment: Inhibition of AcrB in drug resistant Escherichia coli BW25113 assessed as reduction in nile red efflux at 100 uM pretreated for 15 mins followed by nile red addition measured after 3 hrs for 200 secs in presence of glucose by fluorimetric method
Escherichia coli BW25113 [20] = experiment: Inhibition of AcrB in wild-type drug resistant Escherichia coli BW25113 assessed as potentiation of tetraphenyl phosphonium chloride-induced antibacterial activity by measuring tetraphenyl phosphonium chloride MIC at 512 ug/ml after 18 hrs by checkerboard method (reference value: 1024 ug/ml)
Escherichia coli [21] = experiment: Potentiation of tetraphenyl phosphonium chloride-induced antibacterial activity against AcrB-deficient Escherichia coli BW25113 assessed as tetraphenyl phosphonium chloride MIC at 512 ug/ml after 18 hrs by checkerboard method (reference value: 64 ug/ml); assay type: functional; conditions: BW25113, 18 h
Escherichia coli BW25113 [22] = experiment: Inhibition of AcrB in wild-type drug resistant Escherichia coli BW25113 assessed as potentiation of chloramphenicol-induced antibacterial activity by measuring FICI at 128 to 512 ug/ml after 18 hrs by checkerboard method
Escherichia coli [23] = experiment: Effect on rifampicin-induced antibacterial activity against wild-type drug resistant Escherichia coli BW25113 assessed as rifampicin MIC at 128 ug/ml after 18 hrs by checkerboard method (reference value: 16 ug/ml); assay type: functional; conditions: BW25113, 18 h
HepG2 = experiment: Cytotoxicity against human HepG2 cells at 512 to 1024 ug/ml measured every 60 mins for 20 hrs by RealTime-Glo MT cell viability assay; assay type: cell-based; conditions: hepg2, 20 h
Escherichia coli BW25113 [24] = experiment: Inhibition of AcrB in wild-type drug resistant Escherichia coli BW25113 assessed as potentiation of erythromycin-induced antibacterial activity by measuring erythromycin MIC at 256 ug/ml after 18 hrs by checkerboard method (reference value: 128 ug/ml)
Escherichia coli [25] = experiment: Potentiation of erythromycin-induced antibacterial activity against AcrB-deficient Escherichia coli BW25113 assessed as erythromycin MIC at 512 ug/ml after 18 hrs by checkerboard method (reference value: 16 ug/ml); assay type: functional; conditions: BW25113, 18 h
Escherichia coli [26] = experiment: Growth inhibition of drug-sensitive AcrB-deficient Escherichia coli BW25113 at 1024 ug/ml after 18 hrs by resazurin dye based broth microdilution method
Escherichia coli [27] = experiment: Potentiation of chloramphenicol-induced antibacterial activity against AcrB-deficient Escherichia coli BW25113 assessed as chloramphenicol MIC at 512 ug/ml after 18 hrs by checkerboard method (reference value: 2 ug/ml); assay type: functional; conditions: BW25113, 18 h
Escherichia coli BW25113 [28] = experiment: Inhibition of AcrB in wild-type drug resistant Escherichia coli BW25113 assessed as potentiation of erythromycin-induced antibacterial activity by measuring erythromycin MIC at 512 ug/ml after 18 hrs by checkerboard method (reference value: 128 ug/ml)
Escherichia coli BW25113 [29] = experiment: Inhibition of AcrB in wild-type drug resistant Escherichia coli BW25113 assessed as reduction in nile red efflux at 50 uM pretreated for 15 mins followed by nile red addition measured after 3 hrs for 200 secs in presence of glucose by fluorimetric method
Escherichia coli [30] = experiment: Effect on rifampicin-induced antibacterial activity against AcrB-deficient Escherichia coli BW25113 assessed as rifampicin MIC at 512 ug/ml after 18 hrs by checkerboard method (reference value: 16 ug/ml); assay type: functional; conditions: BW25113, 18 h
HEK293 = experiment: Cytotoxicity against HEK293 cells at 512 to 1024 ug/ml measured every 60 mins for 20 hrs by RealTime-Glo MT cell viability assay; assay type: cell-based; conditions: human, hek293, 20 h
Escherichia coli [31] = experiment: Potentiation of tetraphenyl phosphonium chloride-induced antibacterial activity against AcrB-deficient Escherichia coli BW25113 assessed as tetraphenyl phosphonium chloride MIC at 256 ug/ml after 18 hrs by checkerboard method (reference value: 64 ug/ml); assay type: functional; conditions: BW25113, 18 h
Escherichia coli BW25113 [32] = experiment: Inhibition of AcrB in wild-type drug resistant Escherichia coli BW25113 assessed as potentiation of erythromycin-induced antibacterial activity by measuring FICI at 128 to 512 ug/ml after 18 hrs by checkerboard method
Escherichia coli [33] = experiment: Effect on rifampicin-induced antibacterial activity against wild-type drug resistant Escherichia coli BW25113 assessed as rifampicin MIC at 512 ug/ml after 18 hrs by checkerboard method (reference value: 16 ug/ml); assay type: functional; conditions: BW25113, 18 h

For `CC(C)CCOc1cc(C(N)=O)cc2ccccc12`, the MIC (Escherichia coli [1]) was 64 µg/mL, the MIC (Escherichia coli BW25113 [2]) was 4 µg/mL and the fractional inhibitory concentration index (FICI) (Escherichia coli BW25113 [3]) was 0.25. The MIC (Escherichia coli BW25113 [4]) was 2 µg/mL, the MIC (Escherichia coli [5]) was 16 µg/mL and the MIC (Escherichia coli BW25113 [6]) was 8 µg/mL. The MIC (Escherichia coli [7]) was 2 µg/mL, the MIC (Escherichia coli BW25113 [8]) was 512 µg/mL and the MIC (Escherichia coli [9]) was 2 µg/mL. For the same compound, the “growth inhibition (GI)” value (Escherichia coli [10]) was “Non-Toxic”, the MIC (Escherichia coli BW25113 [11]) was 128 µg/mL and the MIC (Escherichia coli [12]) was 16 µg/mL. The MIC (Escherichia coli [13]) was 16 µg/mL, the MIC (Escherichia coli [14]) was 16 µg/mL and the MIC (Escherichia coli [15]) was 16 µg/mL. The inhibition (Escherichia coli BW25113 [16]) was “inactive”, the Activity (Escherichia coli [17]) was “inactive” and the MIC (Escherichia coli BW25113 [18]) was 1020 µg/mL. The inhibition (Escherichia coli BW25113 [19]) was “Active”, the MIC (Escherichia coli BW25113 [20]) was 128 µg/mL and the MIC (Escherichia coli [21]) was 64 µg/mL. The fractional inhibitory concentration index (FICI) (Escherichia coli BW25113 [22]) was 0.25, the MIC (Escherichia coli [23]) was 16 µg/mL and the Activity (HepG2) was “Non-Toxic”. The MIC (Escherichia coli BW25113 [24]) was 64 µg/mL, the MIC (Escherichia coli [25]) was 16 µg/mL and the “growth inhibition (GI)” value (Escherichia coli [26]) was “Toxic”. The MIC (Escherichia coli [27]) was 2 µg/mL, the MIC (Escherichia coli BW25113 [28]) was 16 µg/mL and the inhibition (Escherichia coli BW25113 [29]) was “Active”. For the same compound, the MIC (Escherichia coli [30]) was 16 µg/mL, the Activity (HEK293) was “Non-Toxic” and the MIC (Escherichia coli [31]) was 64 µg/mL. For the same compound, the fractional inhibitory concentration index (FICI) (Escherichia coli BW25113 [32]) was 0.25 and the MIC (Escherichia coli [33]) was 16 µg/mL.
